Assay results from PubChem BioAssay AID2384 (Southern Research Specialized Biocontainment Screening …, 2010).
Several values for one entry are separate records, joined by “and”; a condition that tells them apart may be missing. Identical values can stand only once.

These compounds were tested on S. typhi GFP reporter counter-screen, fluorescence, 4 h (assay: S. typhi counter-screen signal inhibition – fluorescence, 4 h, counter-screen for PhoP regulon inhibitor project, dose response (AID 2384)).

Point of comparison: O=c1c2ccccc2[nH]c2ccccc12, IC50 62 µM. Against it:
- COc1cc(/C=N/NC(=O)c2cncc(Br)c2)cc([N+](=O)[O-])c1O — 3.2-fold lower, 19.1 µM
- O=C(Nc1ccc(Cl)cc1)Nc1ccc2c(c1)N1CCN=C1S2 — within 1.5-fold, 76.3 µM
- NC1CCN(c2nc3c(cc2F)c(=O)c(C(=O)O)cn3-c2ccc(F)cc2F)C1 (stereo not given) — 41-fold lower, 1.53 µM
- CSc1ccc2c(c1)C(N1CCN(C)CC1)Cc1ccccc1S2 (stereo not given) — 2.3-fold lower, 27.5 µM
- OCCN1CCN(C2Cc3cc(Cl)ccc3Sc3ccc(Cl)cc32)CC1 (stereo not given) (tested in a mixture with another compound) — 2.4-fold lower, 25.9 µM
- C#CCOCCOCCOCCNc1nc(N2CCN(C(=O)[C@H](Cc3ccc(O)cc3)n3cc([C@@H](N)CC(C)C)nn3)CC2)nc(N2CCN(C(=O)[C@H](Cc3ccc(O)cc3)n3cc([C@@H](N)CC(C)C)nn3)CC2)n1 — within 1.5-fold, 80 µM
- Cc1ccc(Nc2nc(NCCO)c3ccccc3n2)cc1C — 1.8-fold lower, 34 µM
- O=C(C[n+]1cc(-c2ccccc2)n2c1CCC2)Nc1nc(-c2ccc(F)cc2)cs1 — 1.7-fold lower, 37 µM
- Oc1cc(Cl)ccc1Oc1ccc(Cl)cc1Cl — lower, < 0.55 µM
- CCc1ccc(Nc2n[n+](-c3ccccc3)c(-c3c(Cl)cccc3Cl)s2)cc1 — 1.5-fold lower, 41.3 µM
- O=[N+]([O-])c1ccc(/C=[N+](\[O-])CCO)o1 — within 1.5-fold, 88.9 µM
- CCCCc1ccc2[nH]cc(CCN)c2c1 — within 1.5-fold, 77 µM
- O=C(Cn1cnc2ccccc21)Nc1ccc(SC(F)F)cc1 — 2.3-fold higher, 143 µM
- COc1ccc2sc(N(CCCN(C)C)C(=O)c3ccc(S(=O)(=O)N4CCc5ccccc5C4)cc3)nc2c1 — 2-fold higher, 122 µM
- N=c1n(CCN2CCCCC2)c2ccccc2n1CC(=O)c1ccc(Cl)c(Cl)c1 — 3.8-fold lower, 16.4 µM
- Cc1c(CN(C)C)c2c(n1Cc1ccccc1)C(=O)c1ccc(Br)cc1-2 — within 1.5-fold, 47.2 µM
- CCOC(=O)N/N=C\c1ccc([N+](=O)[O-])o1 — 2-fold lower, 31 µM
- [O-][n+]1cccc2c(Br)cc(Br)c(O)c21 — 1.7-fold lower, 36.6 µM
- CCn1cc(C(=O)O)c(=O)c2cc(F)c(N3CCN(C(=S)NC(=O)c4ccccc4)CC3)cc21 — within 1.5-fold, 78.2 µM
- Clc1ccc(CN2C3=NCCN3c3ccccc32)cc1 — within 1.5-fold, 42.8 µM
- Nc1ncncc1-c1ccc(Cl)cc1 — within 1.5-fold, 65.5 µM
- Cc1cc(NS(=O)(=O)c2ccc(NC(=O)Nc3cccc(Cl)c3)cc2)no1 — 1.9-fold higher, 120 µM
- COc1ccc(OCC(O)CNc2ccc(Br)cc2)cc1 (stereo not given) — 17-fold lower, 3.74 µM
- COc1ccc(Nc2nc(NCC3CCCO3)c3ccccc3n2)c(OC)c1 (stereo not given) — within 1.5-fold, 73.2 µM
- Oc1ccccc1Nc1nc(NCc2ccco2)c2ccccc2n1 — within 1.5-fold, 50.9 µM
- Oc1c(CN2CCCCC2)cc(Br)c2cccnc12 — 3.9-fold lower, 15.7 µM
- CN(C)CC/C=C1/c2cc(F)ccc2Sc2ccc(Cl)cc21 — 1.8-fold lower, 34.3 µM
- CC(=O)Nc1cccc(NC(=O)Nc2ccc(F)cc2F)c1 — 2.3-fold higher, 142 µM
- CN1C(=O)NC(c2cccc(O)c2)C(C(=O)c2cccs2)C1(O)C(F)(F)F (stereo not given) — 2.5-fold lower, 24.6 µM
- CC(=O)NC(c1ccc2ccccc2c1)c1ccc2cccnc2c1O (stereo not given) — within 1.5-fold, 66.7 µM
- O=C(C[n+]1cc(Br)cc2ccccc21)c1ccc(Cl)cc1 — 1.9-fold lower, 32.7 µM
- Cc1ccc(C(=O)N/N=C\c2ccc([N+](=O)[O-])s2)cn1 — 3.1-fold lower, 19.8 µM
- O=C(NC(=S)NNC(=O)c1cccs1)c1ccc(Br)o1 — within 1.5-fold, 60.2 µM
- COc1c(N2CCN(C(=S)Nc3ccccc3F)C(C)C2)c(F)cc2c(=O)c(C(=O)O)cn(C3CC3)c12 (stereo not given) — 6.6-fold lower, 9.45 µM
- Nc1nc(Nc2ccc(Cl)cc2)nc2ccccc12 — 3.6-fold lower, 17 µM
- O=c1[nH]c(=S)ccn1C1OC(CO)C(O)C1O (stereo not given) — 5-fold lower, 12.4 µM
- COC12C(COC(N)=O)C3=C(C(=O)C(C)=C(N)C3=O)N1CC1C2N1C (stereo not given) — 20-fold lower, 3.12 µM
- Cn1c(SCC(=O)N/N=C/c2ccc([N+](=O)[O-])s2)nnc1-c1ccc(Cl)cc1 — within 1.5-fold, 46.2 µM
- Nc1nc2ccccc2n1CCOc1ccccc1Cl — 1.5-fold lower, 40.7 µM
- O=C(CCN1Cc2ccccc2C1)c1ccc2c(c1)OCCO2 — 2.2-fold higher, 137 µM
- O=S1(=O)Nc2c(ccc3cccnc23)-c2ccccc21 — 19-fold lower, 3.32 µM
- CC(NCC(O)COc1ccc2ccccc2c1)c1ccccc1 (stereo not given) — within 1.5-fold, 58.4 µM
- CCN(CC)c1ccc(CNc2nc3ccccc3n2CCN2CCCCC2)cc1 — within 1.5-fold, 43.5 µM
- CN(C)c1nnnn1-c1ccc(Oc2ccccc2)cc1 — 230-fold lower, 0.27 µM
- C[C@H]1c2cccc(O)c2C(O)=C2C(=O)[C@]3(O)C(O)=C(C(N)=O)C(=O)[C@@H](N(C)C)[C@@H]3[C@@H](O)[C@@H]21 — 40-fold lower, 1.56 µM
- NC1=NC[C@@H](Cc2ccc(O)cc2)N1CCc1cc(C(F)(F)F)cc(C(F)(F)F)c1 — within 1.5-fold, 41.7 µM
- Cc1ccc(S(=O)(=O)CCC(=O)c2ccc(O)cc2O)cc1 — within 1.5-fold, 57.5 µM
- N=c1c2c(n(Cc3ccc(Cl)cc3Cl)c3c1CCC3)CCCC2 — 1.7-fold lower, 37.5 µM
- C=CCOc1ccc(Cl)cc1CNC1CCCC1 — 1.6-fold higher, 102 µM
- C#CCOCCOCCOCCNc1nc(N2CCN(C(=O)[C@H](Cc3cc4ccccc4[nH]3)n3cc([C@@H](N)C(C)CC)nn3)CC2)nc(N2CCN(C(=O)[C@H](Cc3cc4ccccc4[nH]3)n3cc([C@@H](N)Cc4ccc(O)cc4)nn3)CC2)n1 (stereo not given in full) — 3.4-fold lower, 18.5 µM
- Cc1ccc(N=Cc2cc(Br)cc(Cl)c2O)cc1 — within 1.5-fold, 47.1 µM
- OCCCNc1c2ccccc2nc2ccccc12 — 1.8-fold higher, 109 µM
- Oc1ccc(CN2CCN(Cc3ccccc3)CC2)c2cccnc12 — 2.4-fold lower, 25.7 µM

In the case of c1cnc2c(c1)ccc1cccnc12, the IC50 is reported as 35 µM and 31.3 µM.
